Assay results: PMC3950855 (British Journal of Cancer, 2014)
Several values for one entry are separate records, joined by “and”; a condition that tells them apart may be missing. Equal values may be shown once. Where a name gives a salt, the structure may show the parent alone.

Assays:
[1] = tested on: GIST; settings: cited from earlier work; for median time to progression / objective remissions: salvage treatment, ref Demetri et al, 2006, 2012
[2] = Plasma pharmacokinetics by LC/PDA; settings: for IM trough levels (mean) / Cmax: 400 mg once daily; for Cmax: human, in vivo, im, 400 mg, IM Cmax (mean)
[3] = ref Verweij et al, 2004, Blanke et al, 2008a, 2008b

For CCN(CC)CCNC(=O)c1c(C)[nH]c(/C=C2\C(=O)Nc3ccc(F)cc32)c1C [sunitinib], the “median time to progression” value [1] is listed as about 6 months and the objective remissions [1] is listed as 7%.
In the case of CNC(=O)c1cc(Oc2ccc(NC(=O)Nc3ccc(Cl)c(C(F)(F)F)c3)c(F)c2)ccn1 [regorafenib], the “median time to progression” value [1] is given as about 6 months and the objective remissions [1] is given as 4.5%.
In the case of Cc1ccc(NC(=O)c2ccc(CN3CCN(C)CC3)cc2)cc1Nc1nccc(-c2cccnc2)n1 [IM, Imatinib mesylate], the median overall survival [1, 3] is given as 5 years, the “patients with long-lasting responses” value [1, 3] is given as 82–86% and the “IM trough levels (mean)” value ([2]; with pan) is given as 2.2 µM. The “IM trough levels (mean)” value ([2]; with pan (combination therapy), ± s.e.m.) was 1290 ng ml^−1 and 1290 (±440) ng ml^−1, the “IM trough levels (mean)” value ([2]; without pan) was 1.8 µM and the “IM trough levels (mean)” value ([2]; without pan (run-in), ± s.e.m.) was 1085 ng ml^−1 and 1085 (±480) ng ml^−1. The “increase of the mean Cmax of IM” value ([2]; combination with panobinostat vs run-in, not statistically significant) was 23%, the Cmax ([2]; with pan) was 4.3 µM and the Cmax ([2]; without pan (7-day run-in), ± s.e.m.) was 2070 ng/mL.
